This experiment relates to L1210 leukemia ip in BDF1 mice, survival T/C. The experiment can be described thus: NCI In Vivo Anticancer Drug Screen. Data for tumor model L1210 Leukemia (intraperitoneal) in B6D2F1 (BDF1) mice. Particulars: endpoint: mean survival time, higher = longer survival. The method in brief:
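Tumor cells were implanted, animals were treated, and survival was followed. The result divides the treated measurement by the vehicle-control measurement.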

[1] abbreviates: dose: 100.0 mg/kg/injection, schedule: Q04DX002 (ip), vehicle: Klucel (hydroxypropylcellulose) (HPC).
Where [2] appears, read: dose: 100.0 mg/kg/injection, schedule: Q04DX003 (ip), vehicle: saline with Tween-80.
[3] abbreviates: dose: 200.0 mg/kg/injection, schedule: Q04DX003 (ip), vehicle: saline with Tween-80.
The mark [4] stands for this setting: dose: 400.0 mg/kg/injection, schedule: Q04DX003 (ip), vehicle: saline with Tween-80.
Where [5] appears, read: dose: 50.0 mg/kg/injection, schedule: Q01DX001 (ip), vehicle: carboxymethylcellulose (CMC).
The mark [6] stands for this setting: dose: 100.0 mg/kg/injection, schedule: Q01DX001 (ip), vehicle: carboxymethylcellulose (CMC).
Setting [7] is: dose: 100.0 mg/kg/injection, schedule: Q01DX009 (ip), vehicle: Klucel (hydroxypropylcellulose) (HPC).
The mark [8] stands for this setting: dose: 100.0 mg/kg/injection, schedule: Q04DX003 (ip), vehicle: Klucel (hydroxypropylcellulose) (HPC).
Where [9] appears, read: dose: 200.0 mg/kg/injection, schedule: Q01DX001 (ip), vehicle: carboxymethylcellulose (CMC).
Setting [10] is: dose: 200.0 mg/kg/injection, schedule: Q04DX003 (ip), vehicle: Klucel (hydroxypropylcellulose) (HPC).
Setting [11] is: dose: 400.0 mg/kg/injection, schedule: Q01DX001 (ip), vehicle: carboxymethylcellulose (CMC).
Where [12] appears, read: dose: 100.0 mg/kg/injection, schedule: Q04DX003 (ip), vehicle: saline.
Setting [13] is: dose: 200.0 mg/kg/injection, schedule: Q04DX003 (ip), vehicle: saline.
The mark [14] stands for this setting: dose: 400.0 mg/kg/injection, schedule: Q04DX003 (ip), vehicle: saline.

Experimental findings from PubChem BioAssay AID248 (DTP/NCI, 2004) are described below.

Several values for one entry are separate records, joined by “and”; a condition that tells them apart may be missing. Identical values can stand only once. Toxic doses and inconclusive results are not listed.

As to `CC(C)(C)c1ccc(O)c([N+](=O)[O-])c1`, the T/C is 86 % of control (dose: 25.0 mg/kg/injection, schedule: Q04DX002 (ip), vehicle: Klucel (hydroxypropylcellulose) (HPC)); 86 % of control (dose: 50.0 mg/kg/injection, schedule: Q04DX002 (ip), vehicle: Klucel (hydroxypropylcellulose) (HPC)); 102 % of control and 88 % of control under setting [1].

Consider `CC(=O)Oc1ccc2c(c1)C1(C)CCCC(C)(C(=O)O)C1CC2` (stereo not drawn), for which the T/C is 92 % of control under setting [2], 97 % of control under setting [3] and 94 % of control under setting [4].

For `C=C(C)CCCC(C)C/C=N/NC(=O)CNC(=O)C=[N+]=[N-]` (stereo not drawn) (tested in a mixture with another compound), the T/C was 100 % of control (dose: 50.0 mg/kg/injection, schedule: Q01DX001 (ip), vehicle: water); 93 % of control (dose: 100.0 mg/kg/injection, schedule: Q01DX001 (ip), vehicle: water); 91 % of control (dose: 200.0 mg/kg/injection, schedule: Q01DX001 (ip), vehicle: water); 100 % of control (dose: 400.0 mg/kg/injection, schedule: Q01DX001 (ip), vehicle: water).

Regarding `O=C1OC(=O)C2C3C=CC(C3)C12` (stereo not drawn), the T/C was 97 % of control (dose: 12.5 mg/kg/injection, schedule: Q01DX009 (ip), vehicle: saline with Tween-80); 100 % of control (dose: 25.0 mg/kg/injection, schedule: Q01DX009 (ip), vehicle: Klucel (hydroxypropylcellulose) (HPC)); 100 % of control (dose: 25.0 mg/kg/injection, schedule: Q01DX009 (ip), vehicle: saline with Tween-80); 104 % of control under setting [5]; 96 % of control (dose: 50.0 mg/kg/injection, schedule: Q01DX009 (ip), vehicle: Klucel (hydroxypropylcellulose) (HPC)); 96 % of control (dose: 50.0 mg/kg/injection, schedule: Q01DX009 (ip), vehicle: saline with Tween-80). For the same molecule, the T/C was 106 % of control and 96 % of control under setting [6]; 105 % of control and 87 % of control under setting [7]; 90 % of control (dose: 100.0 mg/kg/injection, schedule: Q01DX009 (ip), vehicle: saline with Tween-80); 102 % of control under setting [8]; 98 % of control under setting [2]; 104 % of control and 91 % of control under setting [9]. In addition, the T/C (dose: 200.0 mg/kg/injection, schedule: Q01DX009 (ip), vehicle: saline with Tween-80) was 92 % of control; the T/C under setting [10] was 89 % of control; the T/C under setting [3] is 98 % of control; the T/C under setting [11] is 95 % of control and 96 % of control; the T/C (dose: 400.0 mg/kg/injection, schedule: Q01DX009 (ip), vehicle: saline with Tween-80) was 88 % of control; the T/C under setting [4] is 97 % of control.

Turning to `CC1(C)N=C(N)N=C(N)N1c1cccc(Br)c1`, the T/C by setting is: (dose: 2.5 mg/kg/injection, schedule: Q01DX Z (ip), vehicle: saline) 121 % of control; (dose: 11.0 mg/kg/injection, schedule: Q01DX Z (ip), vehicle: carboxymethylcellulose (CMC)) 117 % of control; (dose: 16.0 mg/kg/injection, schedule: Q01DX Z (ip), vehicle: saline) 162 % of control; (dose: 25.0 mg/kg/injection, schedule: Q01DX Z (ip), vehicle: saline) 168 % of control; (dose: 37.0 mg/kg/injection, schedule: Q01DX Z (ip), vehicle: carboxymethylcellulose (CMC)) 105 % of control; (dose: 50.0 mg/kg/injection, schedule: Q01DX Z (ip), vehicle: methylcellulose (MC)) 97 % of control. For the same molecule, the T/C is, setting by setting: (dose: 60.0 mg/kg/injection, schedule: Q01DX Z (ip), vehicle: carboxymethylcellulose (CMC)) 107 % of control; (dose: 75.0 mg/kg/injection, schedule: Q01DX001 (ip), vehicle: other) 103 % of control; (dose: 90.0 mg/kg/injection, schedule: Q01DX Z (ip), vehicle: carboxymethylcellulose (CMC)) 90 % of control; (dose: 150.0 mg/kg/injection, schedule: Q01DX001 (ip), vehicle: other) 108 % of control.

For `c1ccc(Cc2nnc(Cc3ccccc3)nn2)cc1`, the T/C runs as follows: under setting [1], 91 % of control; (dose: 200.0 mg/kg/injection, schedule: Q04DX002 (ip), vehicle: Klucel (hydroxypropylcellulose) (HPC)) 102 % of control; (dose: 400.0 mg/kg/injection, schedule: Q04DX002 (ip), vehicle: Klucel (hydroxypropylcellulose) (HPC)) 105 % of control.

For `Cc1cccc(NC(=S)NCc2ccco2)c1`, the T/C is, setting by setting: under setting [7], 96 % of control; (dose: 200.0 mg/kg/injection, schedule: Q01DX009 (ip), vehicle: Klucel (hydroxypropylcellulose) (HPC)) 93 % of control; (dose: 400.0 mg/kg/injection, schedule: Q01DX009 (ip), vehicle: Klucel (hydroxypropylcellulose) (HPC)) 91 % of control.

With `CCn1c(N)c(N)c(=O)[nH]c1=S`, the T/C was 86 % of control under setting [2], 93 % of control under setting [3] and 86 % of control under setting [4].

For `c1n[nH]c2c1CCC2`, the T/C (dose: 75.0 mg/kg/injection, schedule: Q01DX009 (ip), vehicle: saline with Tween-80) was 97 % of control and the T/C (dose: 150.0 mg/kg/injection, schedule: Q01DX009 (ip), vehicle: saline with Tween-80) was 110 % of control.

As to `CS(=O)c1nsc(S(C)=O)c1C#N` (stereo not drawn), the T/C (dose: 12.5 mg/kg/injection, schedule: Q04DX002 (ip), vehicle: Klucel (hydroxypropylcellulose) (HPC)) was 122 % of control.

On to `CC(C)(C)c1cc(C[P+](c2ccccc2)(c2ccccc2)c2ccccc2)cc(C(C)(C)C)c1O`, for which the T/C (dose: 1.56 mg/kg/injection, schedule: Q01DX009 (ip), vehicle: saline) was 106 % of control; the T/C (dose: 1.56 mg/kg/injection, schedule: Q04DX003 (ip), vehicle: saline) was 91 % of control; the T/C (dose: 3.12 mg/kg/injection, schedule: Q01DX009 (ip), vehicle: saline) was 105 % of control; the T/C (dose: 3.12 mg/kg/injection, schedule: Q04DX003 (ip), vehicle: saline) is 96 % of control; the T/C (dose: 6.25 mg/kg/injection, schedule: Q04DX003 (ip), vehicle: saline) was 91 % of control.

Turning to `CCS(=O)(=O)N(CC(=O)O)Cc1ccccc1`, the T/C (dose: 50.0 mg/kg/injection, schedule: Q01DX009 (ip), vehicle: saline) was 100 % of control; the T/C (dose: 100.0 mg/kg/injection, schedule: Q01DX009 (ip), vehicle: saline) was 104 % of control; the T/C under setting [12] was 100 % of control; the T/C (dose: 200.0 mg/kg/injection, schedule: Q01DX009 (ip), vehicle: saline) is 93 % of control; the T/C under setting [13] was 96 % of control; the T/C (dose: 300.0 mg/kg/injection, schedule: Q01DX009 (ip), vehicle: saline) was 95 % of control. Besides, the T/C under setting [14] is 94 % of control.

Take `COc1ccc2c(C)cc(C)nc2n1`: the T/C (dose: 75.0 mg/kg/injection, schedule: Q04DX002 (ip), vehicle: saline) is 104 % of control; the T/C (dose: 150.0 mg/kg/injection, schedule: Q04DX002 (ip), vehicle: saline) is 112 % of control; the T/C (dose: 300.0 mg/kg/injection, schedule: Q04DX002 (ip), vehicle: saline) was 108 % of control.

For the molecule `ClCc1ccc2c(c1)OCO2`, the T/C by setting is: under setting [8], 104 % of control; under setting [10], 101 % of control; (dose: 400.0 mg/kg/injection, schedule: Q04DX003 (ip), vehicle: Klucel (hydroxypropylcellulose) (HPC)) 98 % of control.

Consider `CN(C)Cc1c(C(O)(c2ccccc2)c2ccccc2)ccc2ccccc12`, for which the T/C by setting is: under setting [5], 90 % of control; under setting [6], 100 % of control; under setting [9], 96 % of control; under setting [11], 90 % of control.

Turning to `CC(C)(C)CC(=O)CC(C)(C)C`, the T/C by setting is: (dose: 100.0 mg/kg/injection, schedule: Q01DX001 (ip), vehicle: saline) 98 % of control; (dose: 200.0 mg/kg/injection, schedule: Q01DX001 (ip), vehicle: saline) 87 % of control; (dose: 400.0 mg/kg/injection, schedule: Q01DX001 (ip), vehicle: saline) 98 % of control.

Consider `NC(=O)N(CCO)CCO`, for which the T/C was 110 % of control under setting [12], 96 % of control under setting [13] and 104 % of control under setting [14].
